According to patent publication US7560479B2 (priority 2003, dated 2009):

Experiments:
[1] = system: isolated rat bladder; test: tissue or blood; format: cell-based; settings: read-out: Functional Assay pkB
[2] = target: T1, M3 muscarinic receptor subtype (Rattus norvegicus, UniProt P08483); test: biochemical; format: binding
T1 construct: Submandibular glands and heart were isolated and placed in ice cold homogenising buffer; from tissue; host or cells: rat submandibular gland membrane homogenate
T1 sequence (P08483 whole entry): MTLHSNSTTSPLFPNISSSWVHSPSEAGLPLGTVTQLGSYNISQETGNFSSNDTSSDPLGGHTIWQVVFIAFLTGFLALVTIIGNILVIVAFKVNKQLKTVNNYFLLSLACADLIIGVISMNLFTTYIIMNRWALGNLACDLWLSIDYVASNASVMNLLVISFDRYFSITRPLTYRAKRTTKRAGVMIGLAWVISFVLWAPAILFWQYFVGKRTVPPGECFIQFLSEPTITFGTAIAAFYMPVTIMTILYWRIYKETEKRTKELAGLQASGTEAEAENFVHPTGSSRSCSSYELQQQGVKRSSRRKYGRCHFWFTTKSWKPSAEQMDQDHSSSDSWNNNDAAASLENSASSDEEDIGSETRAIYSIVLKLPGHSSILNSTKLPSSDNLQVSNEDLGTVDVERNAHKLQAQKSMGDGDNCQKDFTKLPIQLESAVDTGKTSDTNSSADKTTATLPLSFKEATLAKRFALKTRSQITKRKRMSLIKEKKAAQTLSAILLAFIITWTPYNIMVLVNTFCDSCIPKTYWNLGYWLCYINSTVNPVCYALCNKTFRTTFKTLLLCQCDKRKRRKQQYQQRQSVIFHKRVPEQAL

[3] = target: T2, M2 muscarinic receptor subtype (Rattus norvegicus, UniProt P10980); test: biochemical; format: binding
T2 construct: Submandibular glands and heart were isolated and placed in ice cold homogenising buffer; from tissue; host or cells: rat heart membrane homogenate
T2 sequence (P10980 1-466): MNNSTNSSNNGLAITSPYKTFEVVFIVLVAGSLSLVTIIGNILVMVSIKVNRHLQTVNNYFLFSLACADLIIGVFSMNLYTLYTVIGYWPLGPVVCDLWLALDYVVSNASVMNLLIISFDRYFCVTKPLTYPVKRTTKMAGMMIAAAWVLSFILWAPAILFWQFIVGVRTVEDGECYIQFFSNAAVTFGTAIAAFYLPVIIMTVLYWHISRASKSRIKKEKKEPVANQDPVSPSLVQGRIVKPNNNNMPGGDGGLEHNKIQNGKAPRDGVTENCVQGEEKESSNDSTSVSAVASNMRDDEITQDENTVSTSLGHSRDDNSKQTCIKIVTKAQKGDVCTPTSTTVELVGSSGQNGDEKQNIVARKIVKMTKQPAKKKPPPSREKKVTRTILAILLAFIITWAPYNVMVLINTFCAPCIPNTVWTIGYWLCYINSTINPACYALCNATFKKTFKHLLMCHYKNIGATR

CC(C)=CCCN1C[C@@H]2[C@H](C1)[C@H]2NC(=O)[C@@](O)(c1ccccc1)C1CCC(F)(F)C1 (single isomer, unassigned) [Compound 13B, (2S)-(1α, 5α, 6α)-6-N-[3-(4-methyl-3-pentenyl)-3-azabicyclo[3.1.0]-hexyl-2-[(1R or 1S)-3,3-difluorocyclopentyl]-2-hydroxy-2-phenylacetamide] was tested, and the Kb [1] was 67.6 nM, the Ki [2] was 2000 nM and the Ki [3] was greater than 10000 nM.
CC(C)=CCCN1CC2C(C1)C2NC(=O)C(O)(c1ccccc1)C1CCC(F)(F)C1 (single isomer, unassigned) [Compound 14, (2R)-(1α, 5α, 6α)-6-N-[3-(4-methyl-3-pentenyl)-3-azabicyclo[3.1.0]-hexyl]-2-[(1R or 1S)-3,3-difluorocyclopentyl]-2-hydroxy-2-phenylacetamide] showed a Kb [1] of 132 nM, a Ki [2] of 1580 nM and a Ki [3] greater than 10000 nM.
In the case of O=C(N[C@H]1[C@@H]2CN(CCc3ccc4c(c3)OCO4)C[C@@H]21)[C@](O)(c1ccccc1)C1CCC(F)(F)C1 (stereo partly drawn) [Compound 9, (2R)-(1α, 5α, 6α)-6-N-[3-(2-(3,4-methylenedioxyphenyl)ethyl]-3-azabicyclo[3.1.0]-hexyl]-2-[(1R or 1S)-3,3-difluorocyclopentyl]-2-hydroxy-2-phenylacetamide], the Ki [2] is reported as 79.4 nM and the Ki [3] is reported as 4270 nM.
O=C(N[C@H]1[C@@H]2CN(CCc3ccc4c(c3)OCO4)C[C@@H]21)[C@@](O)(c1ccccc1)C1CCC(F)C1 (stereo partly drawn) [Compound 11, (2S)-(1α, 5α, 6α)-6-N-[3-(2-(3,4-methylenedioxyphenyl)ethyl]-3-azabicyclo[3.1.0]-hexyl]-2-[(1R or 1S, 3R or 3S)-3-fluorocyclopentyl]-2-hydroxy-2-phenylacetamide] gave a Ki [2] of 63.1 nM and a Ki [3] of 6310 nM.
